Laboratory results as given in patent US8106055B2, “Substituted amide compounds” (Gruenenthal GmbH, priority 2007, dated 2012).

Key:
human μ opiate receptor = target: T1, human μ opiate receptor (Homo sapiens, UniProt P35372); experiment: Affinity for the human μ opiate receptor ([3H]-naloxone displacement, CHO-K1 receptor membrane preparation, SPA); type: binding; conditions: test concentration of 1 μM; read-out: μ (binding on the μ opioid receptor, % inhibition)
T1 construct: purchased PerkinElmer Life Sciences, Zaventem, Belgium RB-HOM; host or cells: CHO-K1 cells (membrane preparation)
T1 sequence (P35372 whole entry): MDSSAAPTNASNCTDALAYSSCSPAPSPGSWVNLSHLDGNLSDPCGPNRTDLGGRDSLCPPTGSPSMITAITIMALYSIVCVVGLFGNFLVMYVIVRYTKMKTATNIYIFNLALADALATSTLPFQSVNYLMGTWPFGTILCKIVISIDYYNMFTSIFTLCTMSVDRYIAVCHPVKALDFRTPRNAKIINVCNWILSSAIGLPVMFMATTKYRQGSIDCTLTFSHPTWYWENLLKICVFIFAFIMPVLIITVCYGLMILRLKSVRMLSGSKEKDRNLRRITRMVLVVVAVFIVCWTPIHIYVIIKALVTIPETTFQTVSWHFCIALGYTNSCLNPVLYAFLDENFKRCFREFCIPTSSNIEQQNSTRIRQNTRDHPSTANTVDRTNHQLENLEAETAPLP
How it was run: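 Test compounds, 1 nmol/l [3H]-naloxone and CHO-K1 membranes bearing the human μ opiate receptor are combined with WGA-SPA beads. After 90 minutes at room temperature, plates are centrifuged and radioactivity counted. Specific-binding inhibition at 1 μmol/l is given in percent.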

[1] = target: T2, serotonin (5-HT) reuptake (Rattus norvegicus, UniProt P31652); experiment: Inhibition of serotonin (5HT) reuptake in synaptosomes from rat brain; type: biochemical; conditions: test concentration of 10 μM; read-out: 5-HT (inhibition of reuptake of serotonin, % inhibition)
T2 construct: synaptosomes are freshly isolated from areas of the rat brain; from tissue; host or cells: rat brain synaptosomes (P2 fraction)
T2 sequence (P31652 whole entry): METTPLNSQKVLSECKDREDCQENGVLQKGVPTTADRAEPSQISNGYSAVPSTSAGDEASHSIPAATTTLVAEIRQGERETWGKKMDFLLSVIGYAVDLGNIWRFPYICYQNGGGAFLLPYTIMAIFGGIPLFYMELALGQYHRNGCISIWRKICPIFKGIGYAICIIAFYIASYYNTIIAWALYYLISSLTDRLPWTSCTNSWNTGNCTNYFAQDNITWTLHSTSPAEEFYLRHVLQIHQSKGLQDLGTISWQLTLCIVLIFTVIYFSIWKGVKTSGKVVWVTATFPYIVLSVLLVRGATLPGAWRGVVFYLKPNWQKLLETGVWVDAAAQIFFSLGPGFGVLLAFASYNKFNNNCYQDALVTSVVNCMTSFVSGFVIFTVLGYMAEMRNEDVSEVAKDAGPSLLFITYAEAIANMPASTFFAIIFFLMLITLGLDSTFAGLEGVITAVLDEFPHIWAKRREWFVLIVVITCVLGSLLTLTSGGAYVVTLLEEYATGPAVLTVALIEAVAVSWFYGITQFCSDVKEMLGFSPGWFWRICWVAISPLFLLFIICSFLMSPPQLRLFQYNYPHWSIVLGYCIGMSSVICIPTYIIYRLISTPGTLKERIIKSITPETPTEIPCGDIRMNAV
How it was run: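 Compounds screened at 10 μM and reported as percent inhibition of serotonin uptake. Uptake measured in a freshly prepared P2 synaptosomal fraction from rat brain.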

| Structure (SMILES) | inhibition at 1 µM (human μ opiate receptor) | inhibition at 10 µM [1] |
| --- | --- | --- |
| CN(C)C(c1cccc(F)c1)C1CCC(NC(=O)COCCN(C)S(=O)(=O)c2ccc(Cl)cc2)CC1 (centres unmarked) [Example 196, 2-(2-(4-chloro-N-methylphenylsulfonamido)ethoxy)-N-(4-((dimethylamino)(3-fluorophenyl)methyl)cyclohexyl)acetamide] | 81% | 92% |
| COc1cc(C)c(S(=O)(=O)N(C)CCOCC(=O)NCCC2CCC(C(c3cccc(F)c3)N(C)C)CC2)c(C)c1 (centres unmarked) [Example 197, N-(2-(4-((dimethylamino)(3-fluorophenyl)methyl)cyclohexyl)ethyl)-2-(2-(4-methoxy-N,2,6-trimethylphenylsulfonamido)ethoxy)acetamide] | 85% | 85% |
| COc1cc(C)c(S(=O)(=O)N2CCC(OCC(=O)NCCC3CCC(C(c4cccs4)N(C)C)CC3)C2)c(C)c1 (centres unmarked) [Example 199, N-(2-(4-((dimethylamino)(thiophen-2-yl)methyl)cyclohexyl)ethyl)-2-(1-(4-methoxy-2,6-dimethylphenylsulfonyl)pyrrolidin-3-yloxy)acetamide] | 87% | 96% |
| COc1cc(C)c(S(=O)(=O)N2CCN(CCOCC(=O)NCCC3CCC(C(c4cccc(F)c4)N(C)C)CC3)CC2)c(C)c1C (centres unmarked) [Example 200, N-(2-(4-((dimethylamino)(3-fluorophenyl)methyl)cyclohexyl)ethyl)-2-(2-(4-(4-methoxy-2,3,6-trimethylphenylsulfonyl)piperazin-1-yl)ethoxy)acetamide] | 80% | 95% |
